Test results from patent US20220289724A1, “KIF18A INHIBITORS” (AMGEN INC., priority 2019, published 2022).
pIC50: −log10 of the molar value.

Target: T1, Recombinant human KIF18A (1-467 His-tagged) protein (Homo sapiens, UniProt Q8NI77)
T1 construct: Recombinant human KIF18A (1-467 His-tagged) protein; His; made in house
Assay: KIF18A Enzyme Assay: microtubule-stimulated ATPase activity assay (ADP-Glo)
Type: biochemical
Conditions: KIF18A protein 30 nM, 30 μg/mL pig microtubules, ATP at Km 75 μM, ADP-Glo luminescence, RT
Description: KIF18A Enzyme Assay: Microtubule-stimulated ATPase activity assay is used to measure KIF18A enzyme activity after treatment with compound. Compounds were 2-fold serially diluted in DMSO (Sigma Inc) over 22-point concentration range. Recombinant human KIF18A (1-467 His-tagged) protein was expressed using a baculovirus system and purified by affinity chromatography by Amgen Inc. Concentrations of KIF18A protein, microtubules (MT), and ATP in the reaction were optimized for standardized homogenous enzyme assay using ADP-Glorm Kinase/ATPase Assay Kit (Promega Inc). The assay measures ADP formed from the ATPase reaction. […] Concentration-response curve-fitting and IC50 determination was performed using Genedata Screener Software (Standard 15.0.1, Genedata Inc) with a four-parameter logistic regression fit model.
Table A provides data for compounds exemplified in the present application and priority document thereof, as representative compounds of the present invention, as follows: chemical name (as named by either ACD software or ChemDraw (Professional 15.0)) and biological data (IC50 in μM). Ex. […] refers to Example No.

T1 sequence (Q8NI77 1-467): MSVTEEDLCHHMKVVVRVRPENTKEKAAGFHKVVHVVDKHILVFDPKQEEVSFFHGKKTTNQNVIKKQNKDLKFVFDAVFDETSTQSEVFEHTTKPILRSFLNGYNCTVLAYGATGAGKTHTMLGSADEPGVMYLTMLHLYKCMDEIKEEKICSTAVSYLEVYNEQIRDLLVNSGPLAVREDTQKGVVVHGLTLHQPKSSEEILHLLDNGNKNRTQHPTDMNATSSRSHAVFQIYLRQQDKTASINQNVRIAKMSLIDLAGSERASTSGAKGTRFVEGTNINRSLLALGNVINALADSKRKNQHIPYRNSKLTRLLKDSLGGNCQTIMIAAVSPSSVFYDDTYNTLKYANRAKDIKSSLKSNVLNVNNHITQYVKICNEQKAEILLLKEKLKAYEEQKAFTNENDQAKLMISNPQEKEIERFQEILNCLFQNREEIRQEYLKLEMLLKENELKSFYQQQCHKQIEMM
T1 sequence (P02550 whole entry partner): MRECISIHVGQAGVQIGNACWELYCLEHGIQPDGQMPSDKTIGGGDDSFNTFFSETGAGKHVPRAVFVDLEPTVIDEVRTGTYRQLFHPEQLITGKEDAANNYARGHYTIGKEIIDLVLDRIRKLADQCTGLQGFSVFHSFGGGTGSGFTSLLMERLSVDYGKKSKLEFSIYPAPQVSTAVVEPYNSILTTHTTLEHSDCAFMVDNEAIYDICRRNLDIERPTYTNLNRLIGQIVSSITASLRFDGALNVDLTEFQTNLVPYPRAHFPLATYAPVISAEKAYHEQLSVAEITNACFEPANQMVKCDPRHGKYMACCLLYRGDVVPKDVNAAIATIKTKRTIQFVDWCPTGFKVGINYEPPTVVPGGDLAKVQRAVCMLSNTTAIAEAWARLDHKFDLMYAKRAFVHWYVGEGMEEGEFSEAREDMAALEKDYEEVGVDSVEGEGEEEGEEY
T1 sequence (P02554 whole entry partner): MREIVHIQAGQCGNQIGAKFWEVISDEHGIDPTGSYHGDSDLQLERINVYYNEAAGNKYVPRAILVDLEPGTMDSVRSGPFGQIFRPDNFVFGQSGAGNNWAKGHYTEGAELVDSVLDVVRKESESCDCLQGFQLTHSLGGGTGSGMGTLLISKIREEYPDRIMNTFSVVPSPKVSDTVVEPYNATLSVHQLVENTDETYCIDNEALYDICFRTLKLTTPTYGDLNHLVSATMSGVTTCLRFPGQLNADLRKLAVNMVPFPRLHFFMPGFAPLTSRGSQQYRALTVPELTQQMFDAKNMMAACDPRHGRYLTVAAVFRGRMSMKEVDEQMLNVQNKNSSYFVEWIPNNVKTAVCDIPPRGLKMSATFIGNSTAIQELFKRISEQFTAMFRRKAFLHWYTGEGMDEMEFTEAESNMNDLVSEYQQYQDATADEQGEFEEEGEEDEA

Row | pIC50 | Compound
1 | 7.35 | CS(=O)(=O)c1ccc(C(=O)Nc2cccc3c2OCCC3)c(N2CCC3(CC2)CC3)c1 [Example 100-7, N-(chroman-8-yl)-4-(methylsulfonyl)-2-(6-azaspiro[2.5]octan-6-yl)benzamide]
2 | 7.11 | CC(C)(O)COc1cccc(NC(=O)c2ccc(NS(=O)(=O)CCO)cc2N2CCC3(CC2)CC3)c1 [Example 106, N-(3-(2-Hydroxy-2-methylpropoxy)phenyl)-4-((2-hydroxyethyl)sulfonamido)-2-(6-azaspiro[2.5]octan-6-yl)benzamide]
3 | 6.91 | Cn1ccnc1-c1ccc(C(=O)Nc2cccc(S(=O)(=O)NC(C)(C)C)c2)c(N2CCC3(CC2)CC3)c1 [Example 109, N-(3-(N-(tert-butyl)sulfamoyl)phenyl)-4-(1-methyl-1H-imidazol-2-yl)-2-(6-azaspiro[2.5]octan-6-yl)benzamide]
4 | 7.40 | CC(C)(C)NS(=O)(=O)c1cccc(NC(=O)c2ccc(S(N)(=O)=O)cc2N2CCC3(CC2)CC3)c1 [Example 107-8, N-(3-(N-(tert-butyl)sulfamoyl)phenyl)-2-(6-azaspiro[2.5]octan-6-yl)-4-sulfamoylbenzamide]
5 | 6.53 | CC(C)(CO)Nc1cccc(NC(=O)c2ccc(NS(=O)(=O)C3(C)CC3)cc2N2CCC3(CC2)CC3)c1F [Example 101-2, N-(2-fluoro-3-((1-hydroxy-2-methylpropan-2-yl)amino)phenyl)-4-((1-methylcyclopropane)-1-sulfonamido)-2-(6-azaspiro[2.5]octan-6-yl)benzamide]
6 | 6.76 | CC(C)(C)NS(=O)(=O)c1cccc(NC(=O)c2ccc(S(=O)(=O)C3(C)COC3)cc2N2CCC3(CC2)CC3)c1 [Example 100, N-(3-(N-(tert-Butyl)sulfamoyl)phenyl)-4-((3-methyloxetan-3-yl)sulfonyl)-2-(6-azaspiro[2.5]octan-6-yl)benzamide]
7 | 7.47 | Cc1cc(NC(=O)c2ccc(NS(=O)(=O)CCO)cc2N2CCC3(CC2)CC3)cc(N2CCC(F)(F)CC2)c1 [Example 104, N-(3-(4,4-difluoropiperidin-1-yl)-5-methylphenyl)-4-((2-hydroxyethyl)sulfonamido)-2-(6-azaspiro[2.5]octan-6-yl)benzamide]
8 | 6.71 | CC(C)(C)[S@@](=N)(=O)c1cccc(NC(=O)c2ccc(NS(=O)(=O)CCO)cc2N2CCC3(CC2)CC3)c1 [Example 114-1, (R)-4-((2-hydroxyethyl)sulfonamido)-N-(3-(2-methylpropan-2-ylsulfonimidoyl)phenyl)-2-(6-azaspiro[2.5]octan-6-yl)benzamide]
9 | 6.89 | CC(C)(C)NS(=O)(=O)c1cccc(NC(=O)c2ccc(C3(C)COC3)cc2N2CCC3(CC2)CC3)c1 [Example 100-14, N-(3-(N-(tert-butyl)sulfamoyl)phenyl)-4-(3-methyloxetan-3-yl)-2-(6-azaspiro[2.5]octan-6-yl)benzamide]
10 | 6.88 | CNC(=O)c1ccc(C(=O)Nc2cccc(S(=O)(=O)NC(C)(C)C)c2)c(N2CCC3(CC2)CC3)c1 [Example 111-1, N^1-(3-(N-(tert-butyl)sulfamoyl)phenyl)-N^4-methyl-2-(6-azaspiro[2.5]octan-6-yl)terephthalamide]
11 | 7.21 | Cc1ccnc2c(NC(=O)c3ccc(S(C)(=O)=O)cc3N3CCC4(CC3)CC4)cccc12 [Example 100-6, N-(4-methylquinolin-8-yl)-4-(methylsulfonyl)-2-(6-azaspiro[2.5]octan-6-yl)benzamide]
12 | 6.27 | CC(C)(C)NS(=O)(=O)c1cccc(NC(=O)c2ccc(-c3ncco3)cc2N2CCC3(CC2)CC3)c1 [Example 109-3, N-(3-(N-(tert-butyl)sulfamoyl)phenyl)-4-(oxazol-2-yl)-2-(6-azaspiro[2.5]octan-6-yl)benzamide]
13 | 7.20 | CC(C)(C)NS(=O)(=O)c1cccc(NC(=O)c2ccc(NS(=O)(=O)C(C)(C)C)cc2N2CCC3(CC2)CC3)c1 [Example 102-5, N-(3-(N-(tert-butyl)sulfamoyl)phenyl)-4-((1,1-dimethylethyl)sulfonamido)-2-(6-azaspiro[2.5]octan-6-yl)benzamide]
14 | 7.36 | CC(C)(C)NS(=O)(=O)c1cccc(NC(=O)c2ccc(S(=O)(=O)N3CCC3)cc2N2CCC3(CC2)CC3)c1 [Example 107, 4-(Azetidin-1-ylsulfonyl)-N-(3-(N-(tert-butyl)sulfamoyl)phenyl)-2-(6-azaspiro[2.5]octan-6-yl)benzamide]
15 | 7.54 | CNS(=O)(=O)c1ccc(C(=O)Nc2cccc(S(=O)(=O)NC(C)(C)C)c2)c(N2CCC3(CC2)CC3)c1 [Example 107-4, N-(3-(N-(tert-butyl)sulfamoyl)phenyl)-4-(N-methylsulfamoyl)-2-(6-azaspiro[2.5]octan-6-yl)benzamide]
16 | 6.44 | CC(C)(C)c1cccc(NC(=O)c2ccc(S(C)(=O)=O)cc2N2CCC3(CC2)CC3)c1 [Example 100-4, N-(3-(tert-butyl)phenyl)-4-(methylsulfonyl)-2-(6-azaspiro[2.5]octan-6-yl)benzamide]

Row | pIC50 | Compound
17 | 7.12 | CC(C)(C)NS(=O)(=O)c1cccc(NC(=O)c2ccc(S(=O)(=O)NC(C)(C)C)cc2N2CCC3(CC2)CC3)c1 [Example 100-13, 4-(N-(tert-butyl)sulfamoyl)-N-(3-(N-(tert-butyl)sulfamoyl)phenyl)-2-(6-azaspiro[2.5]octan-6-yl)benzamide]
18 | 7.24 | CC(C)(C)NS(=O)(=O)c1cccc(NC(=O)c2ccc(NC(C)(C)CO)cc2N2CCC3(CC2)CC3)c1 [Example 110, N-(3-(N-(tert-Butyl)sulfamoyl)phenyl)-4-((1-hydroxy-2-methylpropan-2-yl)amino)-2-(6-azaspiro[2.5]octan-6-yl)benzamide]
19 | 7.21 | CC(C)(C)NS(=O)(=O)c1cccc(NC(=O)c2ccc(NS(=O)(=O)C3(C)CC3)cc2N2CCC3(CC2)CC3)c1 [Example 102, N-(3-(N-(tert-Butyl)sulfamoyl)phenyl)-4-((1-methylcyclopropane)-1-sulfonamido)-2-(6-azaspiro[2.5]octan-6-yl)benzamide]
20 | 6.85 | N=[S@](=O)(c1cccc(NC(=O)c2ccc(NS(=O)(=O)CCO)cc2N2CCC3(CC2)CC3)c1)N1CCC1 (single isomer, unassigned) [Example 112-1]
21 | 7.37 | CC(C)(C)NS(=O)(=O)c1cccc(NC(=O)c2ccc(S(=O)(=O)NCCO)cc2N2CCC3(CC2)CC3)c1 [Example 107-2, N-(3-(N-(tert-butyl)sulfamoyl)phenyl)-4-(N-(2-hydroxyethyl)sulfamoyl)-2-(6-azaspiro[2.5]octan-6-yl)benzamide]
22 | 6.73 | CS(=O)(=O)c1ccc(C(=O)Nc2cccc(C3CC3)c2)c(N2CCC3(CC2)CC3)c1 [Example 100-3, N-(3-cyclopropylphenyl)-4-(methylsulfonyl)-2-(6-azaspiro[2.5]octan-6-yl)benzamide]
23 | 6.85 | CC(C)(C)NS(=O)(=O)c1cccc(NC(=O)c2ccc([C@](C)(O)CO)cc2N2CCC3(CC2)CC3)c1 (single isomer, unassigned) [Example 108-2]
24 | 7.35 | CC(C)(C)NS(=O)(=O)c1cccc(NC(=O)c2ccc(N3CCCS3(=O)=O)cc2N2CCC3(CC2)CC3)c1 [Example 102-6, N-(3-(N-(tert-butyl)sulfamoyl)phenyl)-4-(1,1-dioxidoisothiazolidin-2-yl)-2-(6-azaspiro[2.5]octan-6-yl)benzamide]
25 | 7.44 | CC(C)(C)NS(=O)(=O)c1cccc(NC(=O)c2ccc(S(=O)(=O)NC3CC3)cc2N2CCC3(CC2)CC3)c1 [Example 107-6, N-(3-(N-(tert-butyl)sulfamoyl)phenyl)-4-(N-cyclopropylsulfamoyl)-2-(6-azaspiro[2.5]octan-6-yl)benzamide]
26 | 6.70 | CN(CCO)C(=O)c1ccc(C(=O)Nc2cccc(S(=O)(=O)NC(C)(C)C)c2)c(N2CCC3(CC2)CC3)c1 [Example 111-2, N^1-(3-(N-(tert-butyl)sulfamoyl)phenyl)-N^4-(2-hydroxyethyl)-N^4-methyl-2-(6-azaspiro[2.5]octan-6-yl)terephthalamide]
27 | 7.18 | CC(C)(CO)Nc1cccc(NC(=O)c2ccc(S(=O)(=O)NC3(C)COC3)cc2N2CCC3(CC2)CC3)c1F [Example 101-1, N-(2-fluoro-3-((1-hydroxy-2-methylpropan-2-yl)amino)phenyl)-4-(N-(3-methyloxetan-3-yl)sulfamoyl)-2-(6-azaspiro[2.5]octan-6-yl)benzamide]
28 | 7.15 | C[C@@H]1CN(c2cccc(NC(=O)c3ccc(NS(=O)(=O)CCO)cc3N3CCC4(CC3)CC4)c2)CCO1 [Example 103-1, (R)-4-((2-hydroxyethyl)sulfonamido)-N-(3-(2-methylmorpholino)phenyl)-2-(6-azaspiro[2.5]octan-6-yl)benzamide]
29 | 7.03 | CC(C)c1cccc(NC(=O)c2ccc(S(C)(=O)=O)cc2N2CCC3(CC2)CC3)c1 [Example 100-2, N-(3-isopropylphenyl)-4-(methylsulfonyl)-2-(6-azaspiro[2.5]octan-6-yl)benzamide]
30 | 6.87 | CC(C)(C)NS(=O)(=O)c1cccc(NC(=O)c2ccc(NCCO)cc2N2CCC3(CC2)CC3)c1 [Example 110-1, N-(3-(N-(tert-butyl)sulfamoyl)phenyl)-4-((2-hydroxyethyl)amino)-2-(6-azaspiro[2.5]octan-6-yl)benzamide]
31 | 7.54 | O=C(Nc1cccc(N2CCC(F)(F)CC2)c1F)c1ccc(NS(=O)(=O)CCO)cc1N1CCC2(CC1)CC2 [Example 104-2, N-(3-(4,4-difluoropiperidin-1-yl)-2-fluorophenyl)-4-((2-hydroxyethyl)sulfonamido)-2-(6-azaspiro[2.5]octan-6-yl)benzamide]
